Reference: patent publication US20150132852A1, “TISSUE CULTURING METHOD, CULTURING METHOD OF FERNS AND EXPLANT OBTAINED THEREFROM” (Chunghwa Picture Tubes, Ltd., priority 2013, published 2015)

How the values were obtained:
[1] = test system: callus rounds of Davallia mariesii; test: Sporophyte regeneration from callus rounds under various cytokinins; assay type: cell-based
Protocol: Finally, the callus round is further cultured in a culture fluid at 23° C. to 25° C. and 11 to 14 μmol^−2 s^−1 (Light:Dark=16:8) for between to 150 days (preferably for 120 days), and are preferably sub-cultured every fifteen days till the callus round regenerates a sporophyte. In this situation, the callus round will keep on growing, and can reach 0.57 cm to 0.7 cm in diameter after approximately 60 days, and reach 1.2 cm to 1.34 cm in 120 days. In the present example, the culture fluid comprises ½ MS medium. In other examples, the culture fluid can further comprise 1 to 5 mg/l N6-(delta 2-isopentenyl)-adenine (2ip), 6-benzylaminopurine (BA) and kinetin, particularly for 1 mg/l N6-(delta 2-isopentenyl)-adenine (2ip). […] Additionally, a regenerated sporophyte of the present example can be further transplanted to a solid medium till it has more than 3 cm length (preferably for 3.5 cm length) for growing into a plant, wherein the plant has a survival rate of up to 90.3%. In the present experiment, callus rounds, being 0.14±0.03 g and 0.21±0.02, are prepared wherein every four are cultured in a culture fluid to induce the callus rounds to regenerate sporophytes, wherein the medium comprises ½ MS medium (including a small amount of sucrose, namely 20 g/l sucrose) and various cytokinins in various amounts as listed in TABLE 3. After 60 days and 120 days of culturing, respectively, sporophytes obtained in each medium are collected and analyzed to record the size of the callus rounds and the number and length of sporophytes regenerated from the callus rounds.

[2] = test system: chopped prothallium of Davallia mariesii; test: Calluses induction from chopped prothallium under various growth regulators; assay type: cell-based; details: 60 days
Protocol: The prothallium is chopped up into small pieces being 0.1 cm to 0.2 cm in width and cultured (suspending culture) in a medium, wherein the medium comprises ½ MS medium (Murashige and Skoog, 1962) having a composition as shown in TABLE 1. In other examples, the medium can also comprise Knop medium (Murashige and Skoog, 1962) or knudson medium (Knudson, 1946). Precisely, 0.1 g chopped prothallium are cultured in 10 ml ½ MS medium, which are shake cultured at 85 rpm for forty to eighty days, and preferably at 23° C. to 25° C. and 11 to 14 μmol^−2 s^−1 (Light:Dark=16:8) for sixty days, and are sub-cultured every thirty days. In the present experiment, a plurality of 50 ml flasks are prepared, each having 0.1 g chopped prothallium of Davallia mariesii (in 0.1 cm to 0.2 cm pieces) being cultured in a medium therein, wherein the medium comprises 10 ml ½ MS medium (including a small amount of sucrose, namely 20 g/l sucrose) and various growth regulators in various amounts as listed in TABLE 2. After 60 days of culturing, calluses obtained in each flask are collected and analyzed respectively, to record the size, weight and number of each callus.

[3] = 1 mg/l in culture fluid, 120 days
[4] = single growth regulator 1 mg/L in 1/2 MS medium
[5] = single growth regulator 2 mg/L in 1/2 MS medium
[6] = single growth regulator 5 mg/L in 1/2 MS medium

## CC(C)=CCNc1ncnc2nc[nH]c12 [2ip, N6-(delta 2-isopentenyl)-adenine]
[1]; [3]
  induction rate of sporophytes: 100%
  proliferation rate of the callus: 537±161.2%
[1]; cytokinin 1 mg/L, 60 days
  Diameter (cm) of callus round and sporophyte thereon: 0.57 ± 0.04 cm
  Induction Rate (%) of sporophyte: 100.0%
  Proliferation Rate (%) of callus round: 208.9 ± 24.1%
[1]; cytokinin 1 mg/L, 120 days
  Diameter (cm) of callus round and sporophyte thereon: 1.34 ± 0.22 cm
  Induction Rate (%) of sporophyte: 100.0%
  Proliferation Rate (%) of callus round: 537.5 ± 161.2%
[1]; cytokinin 2 mg/L, 60 days
  Diameter (cm) of callus round and sporophyte thereon: 0.60 ± 0.03 cm
  Induction Rate (%) of sporophyte: 100.0%
  Proliferation Rate (%) of callus round: 156.0 ± 22.2%
[1]; cytokinin 2 mg/L, 120 days
  Diameter (cm) of callus round and sporophyte thereon: 1.46 ± 0.21 cm
  Induction Rate (%) of sporophyte: 100.0%
  Proliferation Rate (%) of callus round: 386.3 ± 99.7%
[1]; cytokinin 5 mg/L, 60 days
  Diameter (cm) of callus round and sporophyte thereon: 0.38 ± 0.03 cm
  Induction Rate (%) of sporophyte: 0.0%
  Proliferation Rate (%) of callus round: 64.9 ± 18.3%
[1]; cytokinin 5 mg/L, 120 days
  Diameter (cm) of callus round and sporophyte thereon: 0.91 ± 0.24 cm
  Induction Rate (%) of sporophyte: 8.3%
  Proliferation Rate (%) of callus round: 208.3 ± 67.9%

## c1ccc(CNc2ncnc3nc[nH]c23)cc1 [BA, 6-benzylaminopurine]
[1]; cytokinin 1 mg/L, 60 days
  Diameter (cm) of callus round and sporophyte thereon: 0.29 ± 0.05 cm
  Induction Rate (%) of sporophyte: 0.0%
  Proliferation Rate (%) of callus round: 40.5 ± 16.6%
[1]; cytokinin 1 mg/L, 120 days
  Diameter (cm) of callus round and sporophyte thereon: 0.97 ± 0.15 cm
  Induction Rate (%) of sporophyte: 0.0%
  Proliferation Rate (%) of callus round: 191.1 ± 71.5%
[1]; cytokinin 2 mg/L, 60 days
  Diameter (cm) of callus round and sporophyte thereon: 0.42 ± 0.06 cm
  Induction Rate (%) of sporophyte: 0.0%
  Proliferation Rate (%) of callus round: 89.9 ± 22.9%
[1]; cytokinin 2 mg/L, 120 days
  Diameter (cm) of callus round and sporophyte thereon: 0.77 ± 0.13 cm
  Induction Rate (%) of sporophyte: 0.0%
  Proliferation Rate (%) of callus round: 300.0 ± 38.6%
[1]; cytokinin 5 mg/L, 60 days
  Diameter (cm) of callus round and sporophyte thereon: 0.41 ± 0.06 cm
  Induction Rate (%) of sporophyte: 0.0%
  Proliferation Rate (%) of callus round: 41.1 ± 16.3%
[1]; cytokinin 5 mg/L, 120 days
  Diameter (cm) of callus round and sporophyte thereon: 0.88 ± 0.16 cm
  Induction Rate (%) of sporophyte: 0.0%
  Proliferation Rate (%) of callus round: 216.7 ± 38.7%

## c1coc(CNc2ncnc3nc[nH]c23)c1 [Kinetin, 6-Furfurylamino-purine]
[2]; [4]
  Calluses (numbers), callus round in 0.1-0.2 cm: 73.67 ± 14.38 numbers
  Proliferation Rate (%): 153.3 ± 24.9%
[2]; [5]
  Calluses (numbers), callus round in 0.1-0.2 cm: 21.00 ± 3.74 numbers
  Proliferation Rate (%): 66.6 ± 17.0%
[2]; [6]
  Calluses (numbers), callus round in 0.1-0.2 cm: 6.00 ± 5.35 numbers
  Proliferation Rate (%): 23.3 ± 4.7%
[1]; cytokinin 1 mg/L, 60 days
  Diameter (cm) of callus round and sporophyte thereon: 0.31 ± 0.06 cm
  Induction Rate (%) of sporophyte: 0.0%
  Proliferation Rate (%) of callus round: 82.1 ± 24.3%
[1]; cytokinin 1 mg/L, 120 days
  Diameter (cm) of callus round and sporophyte thereon: 0.63 ± 0.09 cm
  Induction Rate (%) of sporophyte: 16.7%
  Proliferation Rate (%) of callus round: 231.0 ± 83.5%
[1]; cytokinin 2 mg/L, 60 days
  Diameter (cm) of callus round and sporophyte thereon: 0.23 ± 0.05 cm
  Induction Rate (%) of sporophyte: 0.0%
  Proliferation Rate (%) of callus round: 47.0 ± 12.2%
[1]; cytokinin 2 mg/L, 120 days
  Diameter (cm) of callus round and sporophyte thereon: 1.02 ± 0.06 cm
  Induction Rate (%) of sporophyte: 0.0%
  Proliferation Rate (%) of callus round: 182.1 ± 88.4%
[1]; cytokinin 5 mg/L, 60 days
  Diameter (cm) of callus round and sporophyte thereon: 0.32 ± 0.07 cm
  Induction Rate (%) of sporophyte: 0.0%
  Proliferation Rate (%) of callus round: 72.6 ± 17.5%
[1]; cytokinin 5 mg/L, 120 days
  Diameter (cm) of callus round and sporophyte thereon: 1.13 ± 0.10 cm
  Induction Rate (%) of sporophyte: 0.0%
  Proliferation Rate (%) of callus round: 217.9 ± 70.9%

## O=C(O)Cc1cccc2ccccc12 [NAA, 1-Naphthaleneacetic acid]
[2]; [4]
  Calluses (numbers), callus round in 0.1-0.2 cm: 54.33 ± 9.46 numbers
  Proliferation Rate (%): 96.6 ± 17.0%
[2]; [5]
  Calluses (numbers), callus round in 0.1-0.2 cm: 23.67 ± 1.25 numbers
  Proliferation Rate (%): 53.3 ± 20.6%
[2]; [6]
  Calluses (numbers), callus round in 0.1-0.2 cm: 0.00 ± 0.00 numbers
  Proliferation Rate (%): 23.3 ± 4.7%
